IC50 data for one molecule are collected here from paper PMC4377982 (Marine Drugs, 2015).

The target in this assay is T1, human α7 nicotinic acetylcholine receptor (α7 nAChR) (Homo sapiens, UniProt P36544).
T1 construct: gene CHRNA7; human α7 nAChR transfected in GH4C1 cells
Kind of assay: radioligand competition with on GH4C1 cells; agonism also shown by Ca2+ imaging in Neuro2a cells with PNU120596 (EC50 […]). Type of assay: cell-based. (In general: In a radioligand displacement assay an active substance lowers the binding of a labelled ligand.)

T1 sequence (P36544 23-502): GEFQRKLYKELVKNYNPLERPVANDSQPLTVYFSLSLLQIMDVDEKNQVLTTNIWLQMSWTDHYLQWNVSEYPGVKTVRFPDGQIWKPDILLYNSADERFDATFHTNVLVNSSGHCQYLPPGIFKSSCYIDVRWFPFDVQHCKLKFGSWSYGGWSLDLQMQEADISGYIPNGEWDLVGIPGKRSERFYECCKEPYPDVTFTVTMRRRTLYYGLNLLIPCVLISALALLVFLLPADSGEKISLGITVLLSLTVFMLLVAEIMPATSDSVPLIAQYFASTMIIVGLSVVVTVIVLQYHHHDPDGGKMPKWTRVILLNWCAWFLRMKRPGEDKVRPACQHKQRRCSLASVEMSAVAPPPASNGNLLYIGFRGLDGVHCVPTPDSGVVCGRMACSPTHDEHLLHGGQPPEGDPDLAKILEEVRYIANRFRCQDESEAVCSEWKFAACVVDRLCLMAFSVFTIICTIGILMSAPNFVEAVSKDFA

As to `C[N+](C)(C)[C@@H](Cc1c[nH]c2cc(Br)ccc12)C(=O)[O-]` [6-BHP, 6-Bromohypaphorine], the half-maximal inhibitory concentration (IC50) – broadly, the point on the concentration scale where inhibition reaches its midpoint – worked out at 23 ± 1 µM.
